Data taken from patent US20230346853A1, “Probiotic Lyophilizate Reactivation Composition for Improving Intestinal Survivability and Adhesion of Probiotics” (COSMAX NBT, INC., priority 2021, published 2023).
Where two headings read alike, the source gives them in different places.

Assays:
Type in all cases: cell-based
[1] = system: Lactobacillus plantarum Lp-115; assay: Bacterial adhesion to human enterocyte-like Caco-2/TC-7 cell line, lyophilized Lp-115; details: 0.03 M; L-lysine compared to the freeze-dried form, proline compared to L-lysine-reactivated
Source text: (§1) An examination was made to see whether the effect of reactivating lyophilized probiotics is applicable to various strains in this experimental example. In this regard, lyophilized Bifidobacterium longum Bl-05 (Dupont; hereinafter referred to as “Bl-05”), Lactobacillus plantarum Lp-115 (Dupont; hereinafter referred to as “Lp-115”), Lactobacillus casei Lc-11 (Dupont; hereinafter referred to as “Lc-11”), and 7-strain mixture (400B) (Dupont; hereinafter referred to as “MIX”) were reactivated with L-lysine and then assayed for their ability to adhere to the human enterocyte-like Caco-2/TC-7 cell line.
(§2) Lyophilizates of the three strains and the 7-strain mix were adjusted to 2×10^8 CFU/g and mixed with 0.03 M L-lysine or 0.03 M proline. The pellets were washed three time with 1× PBS and resuspended in 10 ml MEM cell culture media supplemented with 20% FBS, 2 mM glutamine, and 1% non-essential amino acids. A bacterial adhesion assay was performed according to the method of Botes et al. (Arch. Microbiol, 190 (2008), pp. 573-584) with some modifications. […] To quantify the number of bacteria attached to Caco-2/TC-7 cells, the samples were serially diluted, incubated on MRS agar plates for 48 hours (37° C.), and then counted to measure relative adhesion ratio (counts of attached bacteria in test groups to counts of attached bacteria in the control). […]

[2] = system: Lactobacillus plantarum HAC03; assay: Zeta potential of lyophilized probiotics mixed with single ingredients (screening); details: 0.1 M ingredient, rehydrated 1 min, pH 2.5
Method: In this experimental example, Lactobacillus plantarum HAC03 (accession number: KCTC13242BP, the Korean Research Institute of Bioscience and Biotechnology) (hereinafter referred to as “HAC03”), which was described in Korean Patent Application No. 10-2017-0051574, was used as a probiotic strain.
Afterwards, 2 mL of pH 2.5 distilled water was added to each sample, the pH was re-adjusted using HCl 0.1 N, and 800 μl of the calibrated sample was loaded in DTS1080 cuvettes. The electrophoretic mobility was measured by the Zetaizer Nano ZEN 3600 (Malvern Panalytica, UK) after 2 minutes of equilibration and the Smoluchowski equation was used to convert the data into zetapotential values.
In this experiment, zeta potentials were measured at a pH of 2.5 in consideration of the highly acidic stomach environment, which is one of the initial hurdles that drastically reduce the survivability of the bacteria.

[3] = system: Lactobacillus plantarum HAC03; assay: in vitro Simulated Stomach Duodenum Passage (SSDP) probiotic survivability, lyophilized HAC03; details: for viability at 100000 µM: Lactiplantibacillus plantarum
Method: The HAC03 strain was mixed with each of the single compositions and 1 mL of distilled water for 1 min. The compositions were formulated to have a final concentration of 0.1 M when dissolved in 1 ml of distilled water. Thereafter, 9 mL of distilled water adjusted to have a pH of 2.5 was added to each mixture. The pH was readjusted back to 2.5 in case of an increased pH due to the nature of some of the single ingredients (in order to not affect the survival of the probiotics). After adjusting the pH to 2.5, the tubes were incubated at 37° C. for 1 hour to apply the low-pH gastric stress condition. […] During the gastrointestinal tract assay, the samples were taken immediately, 1 hour, and […] after the incubation (t=0, 1, and 2). The probiotic survivability of each sample after gastric stress and bile stress was calculated by counting viable colonies.

[4] = system: Bifidobacterium longum Bl-05; assay: Bacterial adhesion to human enterocyte-like Caco-2/TC-7 cell line, lyophilized Bl-05; details: 0.03 M, compared to the freeze-dried form
Source text: as §1, §2

[5] = system: Lactobacillus casei Lc-11; assay: Bacterial adhesion to human enterocyte-like Caco-2/TC-7 cell line, lyophilized Lc-11; details: 0.03 M, compared to the freeze-dried form
Source text: as §1, §2

7-strain mixture (400B) = assay: Bacterial adhesion to human enterocyte-like Caco-2/TC-7 cell line, lyophilized 7-strain mixture; details: 0.03 M, compared to the freeze-dried form
Source text: as §1, §2

For `Cl.NCCCC[C@H](N)C(=O)O` [L-Lysine hydrochloride, L-lysine hydrochloride], the “bacterial cell adhesion to Caco-2/TC-7 (FIGS. 2C and 2G), in words” value [1] was “significantly increased bacterial cell adhesion”, the “zeta potential of lyophilized HAC03 mixed with the ingredient (sign, FIG. 1)” value [2] was “negative zeta potentials” and the viability at 100000 µM ([3]; HAC03, 1 h, pH 2.5, read-out: Stomach Survivability (%)) was 85.2%. For the same compound, the viability at 100000 µM ([3]; HAC03, 2 h, pH 6, read-out: Duodenum Survivability (%)) was 48.4%, the “Stomach log CFU/mL” value ([3]; Table 1, 0.1 M ingredient, pH 2.5, 37° C., 1 hour) was 7.87 ± 0.07 log CFU/mL and the “Duodenum log CFU/mL” value ([3]; Table 1, 0.1 M ingredient, then bile salts (10% ox gall) and pH 6.0 synthetic duodenum juice, 2 hours) was 7.62 ± 0.09 log CFU/mL. For the same compound, the “intestinal survivability (acid resistance and bile resistance) in words” value ([3]; Table 1, compared to fresh bacteria / distilled water) was “increased in acid resistance and bile resistance”, the “bacterial cell adhesion to Caco-2/TC-7 (FIGS. 2B and 2F), in words” value [4] was “significantly increased bacterial cell adhesion” and the “bacterial cell adhesion to Caco-2/TC-7 (FIGS. 2A and 2E), in words” value [5] was “significantly increased bacterial cell adhesion”. For the same compound, the “bacterial cell adhesion to Caco-2/TC-7 (FIGS. 2D and 2H), in words” value (7-strain mixture (400B)) was “significantly increased bacterial cell adhesion”.

`O=C(O)[C@@H]1CCCN1` [proline, reference compound] was tested, and the “bacterial cell adhesion to Caco-2/TC-7 (FIGS. 2C and 2G), in words” value [1] was “remarkably lower in adhesion”, the “zeta potential of lyophilized HAC03 mixed with the ingredient (sign, FIG. 1)” value [2] was “positive zeta potentials” and the “bacterial cell adhesion to Caco-2/TC-7 (FIGS. 2B and 2F), in words” value [4] was “remarkably lower in adhesion”. For the same compound, the “bacterial cell adhesion to Caco-2/TC-7 (FIGS. 2A and 2E), in words” value [5] was “remarkably lower in adhesion” and the “bacterial cell adhesion to Caco-2/TC-7 (FIGS. 2D and 2H), in words” value (7-strain mixture (400B)) was “remarkably lower in adhesion”.
